Assay results taken from patent US20260217701A1, “SELECTIVE BET INHIBITORS AND USES THEREOF” (Tay Therapeutics Limited, priority 2022, published 2026).
Values joined by “and” are separate entries in the source; they are usually repeats but may differ in a detail not shown here. Equal values may be shown once.

System: collagen-induced arthritis
Assay: Collagen-induced arthritis (CIA) model: clinical scores and paw volume; on Animal paw volume percent change (%): reference of the scale not given here; on Average animal paw volume percent change (%): reference of the scale not given here
Format: in vivo, Lewis rats
Conditions: for Animal paw volume percent change (%) / Animal paw volume / clinical score left forelimb / clinical score right forelimb / clinical score right hind limb / clinical score, score (all limbs) / clinical score left hind limb: individual animals; for Average detailed clinical score, left forelimb / Average detailed clinical score, left hind limb / Average detailed clinical score, right forelimb / Average detailed clinical score, right hind limb / Average detailed clinical score, score / Average overall clinical score / Overall Clinical Score / Animal paw volume: Day 21; for Overall Clinical Score: individual animals 1-8
[1] = Day 21, R paw, group 7 CIA + Compound A 10 mg/kg
[2] = group 5 CIA + Compound A 1 mg/kg, 2nd section of table, 1st day (between Day 12 and Day 18)
[3] = group 5 CIA + Compound A 1 mg/kg, 2nd section of table, 1st day (between Day 12 and Day 18), 1 mg/kg
[4] = group 5 CIA + Compound A 1 mg/kg, 2nd section of table, 2nd day (between Day 12 and Day 18)
[5] = group 5 CIA + Compound A 1 mg/kg, 2nd section of table, 2nd day (between Day 12 and Day 18), 1 mg/kg
[6] = group 5 CIA + Compound A 1 mg/kg, 2nd section of table, 3rd day (between Day 12 and Day 18)
[7] = group 5 CIA + Compound A 1 mg/kg, 2nd section of table, 3rd day (between Day 12 and Day 18), 1 mg/kg
[8] = group 5 CIA + Compound A 1 mg/kg, Day 18
[9] = group 5 CIA + Compound A 1 mg/kg, Day 18, 1 mg/kg
[10] = group 5 CIA + Compound A 1 mg/kg, Day 19
[11] = group 5 CIA + Compound A 1 mg/kg, Day 19, 1 mg/kg
[12] = group 5 CIA + Compound A 1 mg/kg, Day 20
[13] = group 5 CIA + Compound A 1 mg/kg, Day 20, 1 mg/kg
[14] = group 6 CIA + Compound A 3 mg/kg, 2nd section of table, 1st day (between Day 12 and Day 18)
[15] = group 6 CIA + Compound A 3 mg/kg, 2nd section of table, 2nd day (between Day 12 and Day 18)
[16] = group 6 CIA + Compound A 3 mg/kg, 2nd section of table, 2nd day (between Day 12 and Day 18), 3 mg/kg
[17] = group 6 CIA + Compound A 3 mg/kg, 2nd section of table, 3rd day (between Day 12 and Day 18)
[18] = group 6 CIA + Compound A 3 mg/kg, 2nd section of table, 3rd day (between Day 12 and Day 18), 3 mg/kg
[19] = group 6 CIA + Compound A 3 mg/kg, Day 18
[20] = group 6 CIA + Compound A 3 mg/kg, Day 18, 3 mg/kg
[21] = group 6 CIA + Compound A 3 mg/kg, Day 19
[22] = group 6 CIA + Compound A 3 mg/kg, Day 19, 3 mg/kg
[23] = group 6 CIA + Compound A 3 mg/kg, Day 20
[24] = group 6 CIA + Compound A 3 mg/kg, Day 20, 3 mg/kg
[25] = group 7 CIA + Compound A 10 mg/kg, 2nd section of table, 1st day (between Day 12 and Day 18), 10 mg/kg
[26] = group 7 CIA + Compound A 10 mg/kg, 2nd section of table, 2nd day (between Day 12 and Day 18)
[27] = group 7 CIA + Compound A 10 mg/kg, 2nd section of table, 2nd day (between Day 12 and Day 18), 10 mg/kg
[28] = group 7 CIA + Compound A 10 mg/kg, 2nd section of table, 3rd day (between Day 12 and Day 18)
[29] = group 7 CIA + Compound A 10 mg/kg, 2nd section of table, 3rd day (between Day 12 and Day 18), 10 mg/kg

SMILES: Cn1cc(-c2ccccc2)c(-c2cn(C)c(=O)c3[nH]c(-c4cnn(C(F)(F)F)c4)cc23)cc1=O [Compound A, 6-methyl-4-(1-methyl-2-oxo-5-phenyl-1,2-dihydropyridin-4-yl)-2-(1-(trifluoromethyl)-1H-pyrazol-4-yl)-1,6-dihydro-7H-pyrrolo[2,3-c]pyridin-7-one]
- Average animal paw volume percent change (%) (Day 21, R paw, group 6 CIA + Compound A 3 mg/kg): 38.15%
- Average animal paw volume [1]: 1.81 mL
- Average animal paw volume percent change (%) [1]: 38.27%
- Animal paw volume percent change (%) (Day 21, R paw, group 5 CIA + Compound A 1 mg/kg, 1 mg/kg): 73.56% and 88.03% and 50.91% and 70.19% and 18.45% and 55.51% and 49.81%
- Animal paw volume percent change (%) (Day 21, R paw, group 6 CIA + Compound A 3 mg/kg, 3 mg/kg): 64.91% and 27.24% and 46.04% and 29.74% and 60.23%
- Average detailed clinical score, left forelimb (CIA + Compound A 1 mg/kg): 1.00
- Average detailed clinical score, left hind limb (CIA + Compound A 1 mg/kg): 4.00
- Average detailed clinical score, right forelimb (CIA + Compound A 1 mg/kg): 1.00
- Average detailed clinical score, right hind limb (CIA + Compound A 1 mg/kg): 3.75
- Average detailed clinical score, score (CIA + Compound A 1 mg/kg): 9.75
- Average overall clinical score (CIA + Compound A 1 mg/kg): 5
- Overall Clinical Score (CIA + Compound A 1 mg/kg, 1 mg/kg): 0 and 6 (5×) and 8 and 2
- Average detailed clinical score, left forelimb (CIA + Compound A 3 mg/kg): 0.00
- Average detailed clinical score, left hind limb (CIA + Compound A 3 mg/kg): 2.50
- Average detailed clinical score, right forelimb (CIA + Compound A 3 mg/kg): 1.25
- Average detailed clinical score, right hind limb (CIA + Compound A 3 mg/kg): 2.75
- Average detailed clinical score, score (CIA + Compound A 3 mg/kg): 6.50
- Average overall clinical score (CIA + Compound A 3 mg/kg): 4
- Overall Clinical Score (CIA + Compound A 3 mg/kg, 3 mg/kg): 5 (2×) and 3 (2×)
- Average detailed clinical score, left forelimb (CIA + Compound A 10 mg/kg): 0.00
- Average detailed clinical score, left hind limb (CIA + Compound A 10 mg/kg): 1.88
- Average detailed clinical score, right forelimb (CIA + Compound A 10 mg/kg): 0.13
- Average detailed clinical score, right hind limb (CIA + Compound A 10 mg/kg): 1.63
- Average detailed clinical score, score (CIA + Compound A 10 mg/kg): 3.63
- Average overall clinical score (CIA + Compound A 10 mg/kg): 4
- Animal paw volume (L paw, Group 5 (CIA + Compound A 1 mg/kg), 1 mg/kg): 2.05 mL and 2.45 mL and 2.08 mL (2×) and 2.27 mL and 1.64 mL and 2.15 mL
- Animal paw volume (L paw, Group 6 (CIA + Compound A 3 mg/kg), 3 mg/kg): 1.92 mL and 2.19 mL and 1.64 mL and 1.52 mL and 1.80 mL
- Animal paw volume (R paw, Group 5 (CIA + Compound A 1 mg/kg), 1 mg/kg): 2.27 mL and 2.44 mL and 2.08 mL and 2.26 mL and 1.61 mL and 2.05 mL and 1.99 mL
- Animal paw volume (R paw, Group 6 (CIA + Compound A 3 mg/kg), 3 mg/kg): 2.19 mL and 1.64 mL and 1.94 mL and 1.75 mL and 2.08 mL
- clinical score left forelimb [2]: 0
- clinical score right forelimb [2]: 0
- clinical score right hind limb [3]: 0 (6×) and 1 (2×)
- clinical score, score (all limbs) [3]: 0 (6×) and 2 and 1
- clinical score left forelimb [4]: 0
- clinical score right forelimb [4]: 0
- clinical score left hind limb [5]: 0 (5×) and 2 and 1 (2×)
- clinical score right hind limb [5]: 0 (5×) and 1 (3×)
- clinical score, score (all limbs) [5]: 0 (3×) and 2 (2×) and 1 (3×)
- clinical score left forelimb [6]: 0
- clinical score right forelimb [6]: 0
- clinical score left hind limb [7]: 0 (3×) and 2 (3×) and 1 (2×)
- clinical score right hind limb [7]: 0 (3×) and 2 (2×) and 1 (3×)
- clinical score, score (all limbs) [7]: 0 (3×) and 4 and 3 (3×) and 2
- clinical score left forelimb [8]: 0
- clinical score right forelimb [8]: 0
- clinical score left hind limb [9]: 0 and 2 (3×) and 4 and 3 (2×) and 1
- clinical score right hind limb [9]: 0 and 3 (4×) and 2 (2×) and 1
- clinical score, score (all limbs) [9]: 0 and 5 (3×) and 7 and 6 and 2 and 4
- clinical score left forelimb [10]: 0
- clinical score right forelimb [10]: 0
- clinical score left hind limb [11]: 0 and 3 (5×) and 4 and 1
- clinical score right hind limb [11]: 0 and 3 (5×) and 4 and 2
- clinical score, score (all limbs) [11]: 0 and 6 (5×) and 8 and 3
- clinical score left forelimb [12]: 0
- clinical score right forelimb [12]: 0
- clinical score left hind limb [13]: 0 and 3 (5×) and 4 and 1
- clinical score right hind limb [13]: 0 and 3 (5×) and 4 and 1
- clinical score, score (all limbs) [13]: 0 and 6 (5×) and 8 and 2
- clinical score left forelimb [14]: 0
- clinical score right forelimb [14]: 0
- clinical score left forelimb [15]: 0
- clinical score right forelimb [15]: 0
- clinical score left hind limb [16]: 0 (6×) and 1 (2×)
- clinical score, score (all limbs) [16]: 0 (6×) and 1 and 3
- clinical score left forelimb [17]: 0
- clinical score right forelimb [17]: 0
- clinical score left hind limb [18]: 0 (4×) and 1 (4×)
- clinical score right hind limb [18]: 0 (5×) and 2 and 1 (2×)
- clinical score, score (all limbs) [18]: 0 (4×) and 1 and 3 and 2 (2×)
- clinical score left forelimb [19]: 0
- clinical score right forelimb [19]: 0
- clinical score left hind limb [20]: 2
- clinical score right hind limb [20]: 2
- clinical score, score (all limbs) [20]: 4
- clinical score left forelimb [21]: 0
- clinical score right forelimb [21]: 0
- clinical score left hind limb [22]: 2
- clinical score right hind limb [22]: 3 and 2
- clinical score, score (all limbs) [22]: 5 and 4
- clinical score left forelimb [23]: 0
- clinical score right forelimb [23]: 0
- clinical score left hind limb [24]: 2 and 3
- clinical score right hind limb [24]: 3
- clinical score, score (all limbs) [24]: 5
- clinical score left forelimb (group 7 CIA + Compound A 10 mg/kg, 2nd section of table, 1st day (between Day 12 and Day 18)): 0
- clinical score left hind limb [25]: 0 (7×) and 1
- clinical score right hind limb [25]: 0 (6×) and 1 (2×)
- clinical score, score (all limbs) [25]: 0 (6×) and 1 and 3
- clinical score left forelimb [26]: 0
- clinical score right forelimb [26]: 0
- clinical score left hind limb [27]: 0 (6×) and 1 (2×)
- clinical score right hind limb [27]: 0 (6×) and 2 and 1
- clinical score, score (all limbs) [27]: 0 (5×) and 1 and 2 (2×)
- clinical score left forelimb [28]: 0
- clinical score right forelimb [28]: 0
- clinical score left hind limb [29]: 1 (2×) and 0 (4×) and 2 (2×)
- clinical score right hind limb [29]: 1 (2×) and 0 (5×) and 2
- clinical score, score (all limbs) [29]: 2 and 0 (4×) and 1 and 4 and 3
